Measurements published in US7504384B2 (priority 2000, dated 2009).
Read-outs that look alike come from different tables or passages of the source.

How the values were obtained:
[1] = tested on: nitric oxide (NO) production by BAL macrophages; assay type: in vivo, Brown Norway rats; details: compared to asthmatic and naïve rats, p<0.001; macrophages cultured without further treatment
[2] = tested on: OVA-sensitized asthmatic rats; experiment: OVA-induced broncho-constriction (Penh) in asthmatic rats; assay type: in vivo, Brown Norway rats
Protocol: Subjects: Inbred Brown Norway male rats (4 weeks old) obtained from Harlan, USA, were used in this study. The Hebrew University Animal Welfare Committee approved all protocols.
In mode 1, all groups (5 rats in each) were treated and challenged as described above on day 14, 16, 18 and 20, and pulmonary function (Penh) was assessed on day 20 before and 5 min after challenge (EAR).
In mode 2, each group (10 rats in each) were treated and challenged from day 14, every other day, until day 45. Pulmonary function (Penh) was assessed on day 20 before and 5 min and 8 h after challenge, corresponding to early and late asthmatic reaction (EAR and LAR, respectively).
Assessment of broncho-constriction: Unrestrained conscious rats were placed in a whole-body plethysmograph (Buxco Electronics Inc., Troy, N.Y., USA) connected to a pneumotach (EMKA Technologies, Type 0000) at one end, and to a 10 ml bottle at the other end. The pneumotach was connected to a preamplifier (model MAX2270, Buxco Electronics). Analogue signals from the amplifier were converted to a digital signal by an AD card (LPM-16 National Instruments, Austin, Tex., USA). Broncho-constriction measures were expressed as the enhanced pause (Penh). Penh=(PEF/PIF)*((Te−Tr)/Tr), where PEF=Peak Expiratory Flow, PIF=Peak Inspiratory Flow, Te=Expiratory Time, Tr=Relaxation Time=time of the pressure decay to 36% of total box pressure during expiration.

[3] = tested on: rats with endotoxin-induced sepsis; experiment: Rat survival in LPS-induced endotoxinemia; assay type: in vivo; details: 100 mg/kg 3 hours before LPS (15 mg/kg i.p.) and 50 mg/kg with LPS; 48 hours
Protocol: Endotoxins administered to animals produce cardiovascular and multiorgan disorders that are similar to clinical sepsis. Thus, in the present study, a rat model was developed to test possible Lipid-conjugate effects on mediator production and mortality in endotoxin-induced Sepsis. Rats were intraperitoneally (i.p.) or intravenously (i.v.) injected with a Lipid-conjugate (Compound XXII, 100 mg/kg) dissolved in sterile saline or with sterile saline alone as placebo. After 3 hours, all rats received LPS (15 mg/kg i.p.; Escherichia coli 111:B44 LPS, Sigma, Deisenhofen, Germany). In rats that were pretreated with Compound XXII, LPS was injected together with a second dose of Compound XXII (50 mg/kg). The effect of Compound XXII on LPS injected rats was observed over a time period of 48 hours.

[4] = tested on: Madin Darby canine kidney (MDCK) cells; assay type: cell-based; details: high concentration, Neutral Red Uptake Assay
Human RBC = experiment: Prevention of hemolysis of human red blood cells; assay type: cell-based; details: 20 min, 10 μM Lipid-conjugate, None = 1.000
Protocol: Hemolysis, the breakdown of red blood cells (RBC), may be either a primary disease in itself, or a syndrome associated with another disease or physiological insult. In order to determine the effect of Lipid-conjugates on hemolysis, red blood cells were incubated in the presence of known membrane destabilizing agents and the release of hemoglobulin into the extracellular medium was detected.
Human RBC were washed in saline and suspended in Hanks buffer (pH 7.4). Hemolysis was induced in the absence or presence of 10 μM Lipid-conjugates by treatment with either 5 U/ml streptolysin O (SLO), 25 U/ml streptolysin S (SLS), or 5 μg/ml lysophosphatidylcholine (lyso-PC) for 20 min. The cell membranes were spun and the hemoglobin content in the supernatant was determined by measuring the O.D. at 540 nm (Table 5.1).

[5] = tested on: Influenza A (H1N1 strain) virus; assay type: cell-based, Influenza type A, A/New Caledonia/20/99 (H1N1); details: high concentration, Neutral Red Uptake Assay
Influenza B virus [6] = assay type: cell-based, Influenza type B, B/Hong Kong/330/02; details: high concentration; Visual Observation Assay; Influenza B
[7] = tested on: Respiratory syncytial virus; assay type: cell-based, strain A2
Punta Toro virus [8] = assay type: cell-based, strain Adames
[9] = tested on: Guinea pig tracheal rings; experiment: Inhibition of tracheal ring contraction; details: stimulant Histamine (20 μM); Lipid-conjugate 15 μM
Protocol: A muscle preparation (tracheal rings) was isolated from rats (Experiments 3.1-3.3) and from guinea pigs (Experiments 3.4-3.5). Muscle contraction was measured by attachment of the muscle to a pressure transducer, which works much like a spring. Administration of asthmatogenic substances such as endothelin-1 (ET) and acetylcholine (AcCh) induces muscle contraction. Endothelins are released upon vascular endothelial injury, and they activate macrophages and act as strong chemo-attractants for circulating monocytes. Endothelins affect vascular smooth muscle fibroblast proliferation; help regulate vascular, airway, and intestinal smooth muscle tone; increase the activity of bone alkaline phosphatase; stimulate release of atrial natriuretic peptide (ANP) from atrial cardiocytes; inhibit the release of renin from glomeruli and modulate norepinephrine at sympathetic nerve termini. Opposing vasomotor effects are regulated through the binding of distinct endothelin receptors for vasoconstriction and vasodilation. Endothelins have been linked to atherosclerosis and various cardiovascular disease states. ET-1 is important in congestive heart failure, renal failure, pulmonary hypertension, hyperlipidemia and metastatic prostate cancer. On the other hand, AcCh is one of the three main receptors on the bronchi of the lungs, which are basically tubes with muscular walls. Stimulation of bronchial AcCh receptor induces muscle contraction and decreased airflow through the bronchi. Thus, ET and AcCh were used to experimentally induce muscle contraction in the lungs as a model of obstructive respiratory disorders.
Experiment 3.4: Guinea pig tracheal rings (in a linear array), immersed in a ringer bath, were connected to an apparatus measuring the length of the ring chain. […] Human airways have both Histamine (H)-1 and H2 receptors. H1 receptors, which mediate bronchoconstriction, predominate. Histamine application in experimental models produces signs and symptoms of asthma, such as narrowing of the airways, mucus secretion, wheezing, and coughing.

Influenza B virus [10] = assay type: cell-based, Influenza type B, B/Hong Kong/330/02; details: high concentration, Neutral Red Uptake Assay
Punta Toro virus [11] = assay type: cell-based, strain Adames; remark: listed apart in the source

dipalmitoyl-PE conjugated to HA [Compound XXII]
NO level, BAL macrophages [1]: reduced
broncho-constriction (percent change of Penh), early asthmatic reaction (EAR) ([2]; aerosol inhalation, 5 min after challenge, compared with Naïve or Dx-treated groups, p<0.01 vs Asthmatic): no significant difference
broncho-constriction (percent change of Penh), late asthmatic reaction (LAR) ([2]; aerosol inhalation, 8 h after challenge, compared with Naïve or Dx-treated groups, p<0.01 vs Asthmatic): no significant difference
allergen-induced broncho-constriction (Penh), inhaled before OVA challenge ([2]; already asthmatic rats, nebulized 1 mg/ml for 5 minutes, 30 minutes before challenge): effective in preventing allergen-induced broncho-constriction
broncho-constriction (Penh), inhaled after OVA challenge ([2]; asthmatic rats, nebulized 1 mg/ml for 5 minutes, thirty minutes after challenge): reverse broncho-constriction
mortality rate among septic rats [3]: markedly reduced the mortality rate

dipalmitoyl-phosphatidyl-ethanolamine conjugated to heparin [Compound XXIV]
IC50 ([4]; listed as Influenza A (H1N1 strain)): 64 µg/mL
IC50 ([4]; listed as Influenza A (H3N2 strain)): 110 µg/mL
IC50 ([4]; listed as Influenza B): 220 µg/mL
HEMOLYSIS (O.D. AT 540 nm), Lyso-PC (Human RBC; 5 μg/ml lysophosphatidylcholine): 0.002 O.D.
HEMOLYSIS (O.D. AT 540 nm), SLO (Human RBC; 5 U/ml streptolysin O): 0.002 O.D.
HEMOLYSIS (O.D. AT 540 nm), SLS (Human RBC; 25 U/ml streptolysin S): 1.100 O.D.
EC50 [5]: 1000 µg/mL
EC50 (Influenza B virus [6]): 350 µg/mL
EC50 [7]: 4 µg/mL
SI (IC50/EC50) (Punta Toro virus [8]): 0
EC50 (Punta Toro virus [8]; low concentrations, Visual Observation Assay, Punta Toro A): >100 µg/mL
virus inhibitory effect against Punta Toro virus (Punta Toro virus [8]; lower range of doses, at the concentrations tested): did not display a virus inhibitory effect
% Inhibition of tracheal ring contraction [9]: 56 ± 0.05%
EC50 (Influenza B virus [10]): 450 µg/mL
SI (IC50/EC50) (Punta Toro virus [11]): 0
EC50 (Punta Toro virus [11]; low concentrations, Neutral Red Uptake Assay, Punta Toro A): >100 µg/mL
